Consider 14 molecules from patent US20140221361A1, “C-19 MODIFIED TRITERPENOIDS WITH HIV MATURATION INHIBITORY ACTIVITY” (priority 2013, published 2014).

The test system of the first experiment is recombinant NL4-3 virus (Renilla luciferase in nef, Gag P373S). The experiment in a line: HIV cell culture assay (luciferase reporter, MT-2 cells). Format: cell-based, HIV-1. As to conditions: MT-2 cells infected for 4-5 days with NLRluc recombinants; luciferase activity; serial dilutions of inhibitor. On the procedure: MT-2 cells and 293T cells were obtained from the NIH AIDS Research and Reference Reagent Program. MT-2 cells were propagated in RPMI 1640 media supplemented with 10% heat inactivated fetal bovine serum, […]. The 293T cells were propagated in DMEM media supplemented with 10% heat inactivated fetal bovine serum (FBS), 100 units/ml penicillin G and 100 µg/ml streptomycin. The proviral DNA clone of NL4-3 was obtained from the NIH AIDS Research and Reference Reagent Program. A recombinant NL4-3 virus, in which a section of the nef gene from NL4-3 was replaced with the Renilla luciferase gene, was used as a reference virus. In addition, residue Gag P373 was converted to P373S. Briefly, the recombinant virus was prepared by transfection of the altered proviral clone of NL4-3. Transfections were performed in 293T cells using LipofectAMINE PLUS from Invitrogen (Carlsbad, Calif.), according to manufacturer's instruction. The virus was titered in MT-2 cells using luciferase enzyme activity as a marker. Luciferase was quantitated using the Dual Luciferase kit from Promega (Madison, Wis.), with modifications to the manufacturer's protocol. The diluted Passive Lysis solution was pre-mixed with the re-suspended Luciferase Assay Reagent and the re-suspended Stop & Glo Substrate (2:1:1 ratio). Fifty (50) μL of the mixture was added to each aspirated well on assay plates and luciferase activity was measured immediately on a Wallac TriLux (Perkin-Elmer). Antiviral activities of inhibitors toward the recombinant virus were quantified by measuring luciferase activity in cells infected for 4-5 days with NLRluc recombinants in the presence serial dilutions of the inhibitor.
A word on the EC50: it is the concentration that produces a half-maximal response. Take `CC(C(=O)O)[C@@H]1CC[C@]2(NCCN3CCS(=O)(=O)CC3)CC[C@]3(C)[C@H](CC[C@@H]4[C@@]5(C)CC=C(c6ccc(C(=O)O)c(F)c6)C(C)(C)[C@@H]5CC[C@]43C)[C@@H]12` (stereo partly drawn) [Example A6, 4-((1R,3aS,5aR,5bR,7aR,11aS,11bR,13aR,13bR)-1-(1-carboxyethyl)-3a-((2-(1,1-dioxidothiomorpholino)ethyl)amino)-5a,5b,8,8,11a-pentamethyl-2,3,3a,4,5,5a,5b,6,7,7a,8,11,11a,11b,12,13,13a,13b-octadecahydro-1H-cyclopenta[a]chrysen-9-yl)-2-fluorobenzoic acid]: the EC50 was 390 nM.

For the molecule `CC(C(=O)O)[C@@H]1CC[C@]2(NCCN3CCS(=O)(=O)CC3)CC[C@]3(C)[C@H](CC[C@@H]4[C@@]5(C)CC=C(c6ccc(C(=O)O)c(F)c6)C(C)(C)[C@@H]5CC[C@]43C)[C@@H]12` (stereo partly drawn) [Example A7, 4-((1R,3aS,5aR,5bR,7aR,11aS,11bR,13aR,13bR)-1-(1-carboxyethyl)-3a-((2-(1,1-dioxidothiomorpholino)ethyl)amino)-5a,5b,8,8,11a-pentamethyl-2,3,3a,4,5,5a,5b,6,7,7a,8,11,11a,11b,12,13,13a,13b-octadecahydro-1H-cyclopenta[a]chrysen-9-yl)-2-fluorobenzoic acid], the EC50 amounted to 110 nM.

The same experiment, now with this note: Renilla, NL43, MT-2 cells infected for 4-5 days with NLRluc recombinants; luciferase activity; serial dilutions of inhibitor.
Regarding `CC1(C)C(c2ccc(C(=O)O)cc2)=CC[C@]2(C)[C@H]3CC[C@@H]4[C@H]5[C@H](NC(=O)N6CCCC6)CC[C@]5(NCCN5CCS(=O)(=O)CC5)CC[C@@]4(C)[C@]3(C)CC[C@@H]12` [Example B30, 4-((1R,3aR,5aR,5bR,7aR,11aS,11bR,13aR,13bS)-3a-((2-(1,1-dioxidothiomorpholino)ethyl)amino)-5a,5b,8,8,11a-pentamethyl-1-(pyrrolidine-1-carboxamido)-2,3,3a,4,5,5a,5b,6,7,7a,8,11,11a,11b,12,13,13a,13b-octadecahydro-1H-cyclopenta[a]chrysen-9-yl)benzoic acid], the EC50 came to 2.96 nM.

On to `COC(=O)N[C@@H]1CC[C@]2(NCCN3CCS(=O)(=O)CC3)CC[C@]3(C)[C@H](CC[C@@H]4[C@@]5(C)CC=C(c6ccc(C(=O)O)cc6)C(C)(C)[C@@H]5CC[C@]43C)[C@@H]12` [Example B26, 4-((1R,3aR,5aR,5bR,7aR,11aS,11bR,13aR,13bS)-3a-((2-(1,1-dioxidothiomorpholino)ethyl)amino)-1-((methoxycarbonyl)amino)-5a,5b,8,8,11a-pentamethyl-2,3,3a,4,5,5a,5b,6,7,7a,8,11,11a,11b,12,13,13a,13b-octadecahydro-1H-cyclopenta[a]chrysen-9-yl)benzoic acid], for which the EC50 stood at 2.85 nM.

As to `CN(C(=O)C(F)(F)F)[C@@H]1CC[C@]2(NCCN3CCS(=O)(=O)CC3)CC[C@]3(C)[C@H](CC[C@@H]4[C@@]5(C)CC=C(c6ccc(C(=O)O)cc6)C(C)(C)[C@@H]5CC[C@]43C)[C@@H]12` [Example B44, 4-((1R,3aR,5aR,5bR,7aR,11aS,11bR,13aR,13bS)-3a-((2-(1,1-dioxidothiomorpholino)ethyl)amino)-5a,5b,8,8,11a-pentamethyl-1-(2,2,2-trifluoro-N-methylacetamido)-2,3,3a,4,5,5a,5b,6,7,7a,8,11,11a,11b,12,13,13a,13b-octadecahydro-1H-cyclopenta[a]chrysen-9-yl)benzoic acid], the EC50 was determined as 5.92 nM.

`CC([C@@H]1CC[C@]2(NCCN3CCS(=O)(=O)CC3)CC[C@]3(C)[C@H](CC[C@@H]4[C@@]5(C)CC=C(c6ccc(C(=O)O)cc6)C(C)(C)[C@@H]5CC[C@]43C)[C@@H]12)N1CCCC1=O` (stereo partly drawn) [Example B32, 4-((1R,3aS,5aR,5bR,7aR,11aS,11bR,13aR,13bS)-3a-((2-(1,1-dioxidothiomorpholino)ethyl)amino)-5a,5b,8,8,11a-pentamethyl-1-(1-(2-oxopyrrolidin-1-yl)ethyl)-2,3,3a,4,5,5a,5b,6,7,7a,8,11,11a,11b,12,13,13a,13b-octadecahydro-1H-cyclopenta[a]chrysen-9-yl)benzoic acid]: the 50% effective concentration (EC50) was 2.84 nM.

In the case of `C=C(CNCCO)[C@@H]1CC[C@]2(C(=O)O)CC[C@]3(C)[C@H](CC[C@@H]4[C@@]5(C)CC=C(c6ccc(C(=O)O)cc6)C(C)(C)[C@@H]5CC[C@]43C)[C@@H]12` [Example 2, (1R,3aS,5aR,5bR,7aR,11aS,11bR,13aR,13bS)-9-(4-carboxyphenyl)-1-(3-(2-hydroxyethylamino)prop-1-en-2-yl)-5a,5b,8,8,11a-pentamethyl-2,3,3a,4,5,5a,5b,6,7,7a,8,11,11a,11b,12,13,13a,13b-octadecahydro-1H-cyclopenta[a]chrysene-3a-carboxylic acid], the EC50 is 140 nM.

Regarding `CC(O)[C@@H]1CC[C@]2(NCCN3CCS(=O)(=O)CC3)CC[C@]3(C)[C@H](CC[C@@H]4[C@@]5(C)CC=C(c6ccc(C(=O)O)cc6)C(C)(C)[C@@H]5CC[C@]43C)[C@@H]12` (single isomer, unassigned) [Example B11], the EC50 stood at 2.18 nM.

For the molecule `C=C(COCCN1CCOCC1)[C@@H]1CC[C@]2(C(=O)NCCN(C)C)CC[C@]3(C)[C@H](CC[C@@H]4[C@@]5(C)CC=C(c6ccc(C(=O)O)cc6)C(C)(C)[C@@H]5CC[C@]43C)[C@@H]12` [Example 14, 4-((1R,3aS,5aR,5bR,7aR,11aS,11bR,13aR,13bS)-3a-(2-(dimethylamino)ethylcarbamoyl)-5a,5b,8,8,11a-pentamethyl-1-(3-(2-morpholinoethoxy)prop-1-en-2-yl)-2,3,3a,4,5,5a,5b,6,7,7a,8,11,11a,11b,12,13,13a,13b-octadecahydro-1H-cyclopenta[a]chrysen-9-yl)benzoic acid], the EC50 is 0.72 nM.

Turning to `CN[C@]12CC[C@@H](C3(C)CC3)[C@@H]1[C@H]1CC[C@@H]3[C@@]4(C)CC=C(c5ccc(C(=O)O)cc5)C(C)(C)[C@@H]4CC[C@@]3(C)[C@]1(C)CC2` [Example B50, 4-((1R,3aS,5aR,5bR,7aR,11aS,11bR,13aR,13bR)-5a,5b,8,8,11a-pentamethyl-3a-(methylamino)-1-(1-methylcyclopropyl)-2,3,3a,4,5,5a,5b,6,7,7a,8,11,11a,11b,12,13,13a,13b-octadecahydro-1H-cyclopenta[a]chrysen-9-yl)benzoic acid], the EC50 stood at 1.36 nM.

`CC1(C)C(c2ccc(C(=O)O)cc2)=CC[C@]2(C)[C@H]3CC[C@@H]4[C@H]5[C@H](C(=O)CO)CC[C@]5(NCCN5CCS(=O)(=O)CC5)CC[C@@]4(C)[C@]3(C)CC[C@@H]12` [Example B25, 4-((1R,3aS,5aR,5bR,7aR,11aS,11bR,13aR,13bS)-3a-((2-(1,1-dioxidothiomorpholino)ethyl)amino)-1-(2-hydroxyacetyl)-5a,5b,8,8,11a-pentamethyl-2,3,3a,4,5,5a,5b,6,7,7a,8,11,11a,11b,12,13,13a,13b-octadecahydro-1H-cyclopenta[a]chrysen-9-yl)benzoic acid]: the EC50 came to 110 nM.

Regarding `CC1([C@@H]2CC[C@]3(NCCN4CCN(S(C)(=O)=O)CC4)CC[C@]4(C)[C@H](CC[C@@H]5[C@@]6(C)CC=C(c7ccc(C(=O)O)cc7)C(C)(C)[C@@H]6CC[C@]54C)[C@@H]23)CC1` [Example B56, 4-((1R,3aS,5aR,5bR,7aR,11aS,11bR,13aR,13bR)-5a,5b,8,8,11a-pentamethyl-1-(1-methylcyclopropyl)-3a-(2-(4-(methylsulfonyl)piperazin-1-yl)ethylamino)-2,3,3a,4,5,5a,5b,6,7,7a,8,11,11a,11b,12,13,13a,13b-octadecahydro-1H-cyclopenta[a]chrysen-9-yl)benzoic acid], the EC50 worked out at 2.51 nM.

For `COC(C)(C)[C@@H]1CC[C@]2(NCCN3CCS(=O)(=O)CC3)CC[C@]3(C)[C@H](CC[C@@H]4[C@@]5(C)CC=C(c6ccc(C(=O)O)cc6)C(C)(C)[C@@H]5CC[C@]43C)[C@@H]12` [Example B4, 4-((1R,3aS,5aR,5bR,7aR,11aS,11bR,13aR,13bS)-3a-((2-(1,1-dioxidothiomorpholino)ethyl)amino)-1-(2-methoxypropan-2-yl)-5a,5b,8,8,11a-pentamethyl-2,3,3a,4,5,5a,5b,6,7,7a,8,11,11a,11b,12,13,13a,13b-octadecahydro-1H-cyclopenta[a]chrysen-9-yl)benzoic acid], the EC50 was determined as 2.06 nM.

With `CN(C)[C@@H]1CC[C@]2(NCCN3CCS(=O)(=O)CC3)CC[C@]3(C)[C@H](CC[C@@H]4[C@@]5(C)CC=C(c6ccc(C(=O)O)cc6)C(C)(C)[C@@H]5CC[C@]43C)[C@@H]12` [Example B38, 4-((1R,3aR,5aR,5bR,7aR,11aS,11bR,13aR,13bS)-1-(dimethylamino)-3a-((2-(1,1-dioxidothiomorpholino)ethyl)amino)-5a,5b,8,8,11a-pentamethyl-2,3,3a,4,5,5a,5b,6,7,7a,8,11,11a,11b,12,13,13a,13b-octadecahydro-1H-cyclopenta[a]chrysen-9-yl)benzoic acid], the EC50 turned out to be 10 nM.
